Experimental data as given in patent publication US20230310573A1, “Stabilized Vaccine Compositions” (priority 2020, published 2023).
Read-outs that look alike come from different tables or passages of the source.

Columns and labels:
[1] = target: T1, RSV pre-fusion F (preF) protein of SEQ ID NO: 10 (Human respiratory syncytial virus A, UniProt P03420, D486N/DEL108-136/I379V/M447V/N67I/P102A/S215P); assay type: physicochemical
T1 construct: made in house

[2] = target: T1, RSV pre-fusion F (preF) protein of SEQ ID NO: 10; assay: Quantification of stabilizing compound III after UF/DF by LC-MS/MS; assay type: physicochemical; details: high excess (1:50) added before UF/DF
Method: FIG. 13. Buffer exchange using different buffers & and excess stabilizing compound III. Samples that contained stabilizing compound III, were pre-incubated for 24 h at room temperature (RT). […] Then, samples were assessed for (a) aggregation level by analytical SEC, (b) melting temperature by DSF (Day 0). Individual replicates (n=5 for slow freeze; n=3 for DSF), mean and error bars indicating the standard deviation are depicted. (c) Quantification of stabilizing compound III after UF/DF. Samples that were previously UF/DF-ed and snap frozen were used to quantify the amount of FI left after buffer exchange. Quantification was performed using a LC-MS/MS. Plotted in the left Y axis the concentration from each sample. Right Y axis corresponds to the equivalence of stabilizing compound III molecules per trimer.
Additionally, the concentration of stabilizing compound III present in the samples after UF/DF was determined by LC-MS/MS.

CS(=O)(=O)CCCn1c(Cn2c(=O)n(C3CC3)c3ccncc32)nc2cc(Br)ccc21 [Compound III, 3-[[5-bromo-1-(3-methylsulfonylpropyl)benzimidazol-2-yl]methyl]-1-cyclopropyl-imidazo[4,5-c]pyridin-2-one]
trimer content after heat stress (SEC) ([1]; 6 weeks at 37° C., AP1, formulation 1, formulation 5a, trimer:compound 1:3 and 1:9): trimer content was not changed compared to the control | aggregation after heat stress (SEC) ([1]; 6 weeks at 47° C., AP1, formulation 1, formulation 5a, trimer:compound 1:3 and 1:9): aggregation was higher for the samples without compound compared to the samples with compound | formation of protein aggregates in liquid phase (SEC trimer content vs 4° C. control) ([1]; 37° C., up to 26 weeks, different buffers, 1:3 or 1:9): protects from the formation of protein aggregates | protection from aggregation over time, by ratio ([1]; 37° C., up to 26 weeks, higher ratios (1:9)): best protection from aggregation over time | protection from aggregation at 37° C. ([1]; AP1, 9, 16 or 26 weeks): did not show protection from aggregation | trimer content at 37° C. ([1]; Formulation 1, 9, 16 or 26 weeks): improved the trimer content | trimer content at 37° C. ([1]; Formulation 5a and FB12, 9, 16 or 26 weeks): always improved the trimer content | compound bound after UF/DF (LC-MS/MS) [2]: ~2.6 molecules of stabilizing compound III per trimer
